Source: patent publication US9796716B2, “Selective inhibitors of Tec and Src protein kinase families” (Pharmascience, Inc., priority 2012, dated 2017)
Where two headings read alike, the source gives them in different places.

Legend:
[1] = test system: Splenocytes (B cell proliferation stimulated with anti-IgM F(ab′)2); assay: Splenic Cell Proliferation Assay; type: cell-based; details: CD1 mouse splenocytes, 2.5 ug/ml anti-IgM F(ab′)2 for 72 h, Cell Titer-Glo, read-out: EC50 (nM), Inhibition of splenic cell proliferation
Method: Splenic Cell Proliferation Assay
Splenocytes were obtained from 6 week old male CD1 mice (Charles River Laboratories Inc.). Mouse spleens were manually disrupted in PBS and filtered using a 70 um cell strainer followed by ammonium chloride red blood cell lysis. Cells were washed, resuspended in Splenocyte Medium (HyClone RPMI supplemented with 10% heat-inactivated FBS, 0.5× non-essential amino acids, 10 mM HEPES, 50 uM beta mercaptoethanol) and incubated at 37° C., 5% CO2 for 2 h to remove adherent cells. Suspension cells were seeded in 96 well plates at 50,000 cells per well and incubated at 37° C., 5% CO2 for 1 h. Splenocytes were pre-treated in triplicate with 10,000 nM curves of Formula 1 compounds for 1 h, followed by stimulation of B cell proliferation with 2.5 ug/ml anti-IgM F(ab′)2 (Jackson ImmunoResearch) for 72 h. Cell proliferation was measured by Cell Titer-Glo Luminescent Assay (Promega). EC50 values (50% proliferation in the presence of compound as compared to vehicle treated controls) were calculated from dose response compound curves using GraphPad Prism Software.

[2] = biological target: recombinant human full-length Bruton Agammaglobulinemia Tyrosine Kinase (Btk) (Homo sapiens (Human), UniProt Q06187); assay: Btk Kinase Inhibition Assay (fluorescence polarization); type: biochemical; details: 10 μM ATP, 250 μM substrate, 60 minutes; Ki calculated from IC50 using the Cheng-Prusoff equation
Method: Kinase Binding Btk Kinase Inhibition Assay
Fluorescence polarization-based kinase assays were performed in 384 well-plate format using histidine tagged recombinant human full-length Bruton Agammaglobulinemia Tyrosine Kinase (Btk) and a modified protocol of the KinEASE™ FP Fluorescein Green Assay supplied from Millipore. Kinase reaction were performed at room temperature for 60 minutes in presence of 250 μM substrate, 10 μM ATP and variable test article concentrations. The reaction was stopped with EDTA/kinase detection reagents and the polarization measured on a Tecan 500 instrument. From the dose-response curve obtained, the IC50 was calculated using Graph Pad Prisms® using a non linear fit curve. The Km for ATP on each enzyme was experimentally determined and the Ki values calculated using the Cheng-Prusoff equation (see: Cheng Y, Prusoff W H. (1973) Relationship between the inhibition constant (K1) and the concentration of inhibitor which causes 50 percent inhibition (I50) of an enzymatic reaction”. Biochem Pharmacol 22 (23): 3099-108).

Balb/c mice = assay: Mouse Arthus; type: in vivo; details: oral gavage at 30 mg/kg, 1 h pre-treatment
Method: Mouse Arthus studies were conducted as reported in Braselmann S, Taylor V, Zhao H, Wang S, Sylvain C, Baluom M, Qu K, Herlaar E, Lau A, Young C, Wong B R, Lovell S, Sun T, Park G, Argade A, Jurcevic S, Pine P, Singh R, Grossbard E B, Payan D G, Masuda E S: R406 an orally available spleen tyrosine kinase inhibitor blocks fc receptor signaling and reduces immune-complex mediated inflammation. J Pharmacol Exp Ther, 2006, 319:998-1008.
In summary, female Balb/c mice (6-7 weeks on arrival) were habituated to the animal facility for at least 4 days. On the day of the experiment, animals were pre-treated (t=minus 1 h) with compound or vehicle alone by gavage (PO). At t=0, animals were injected intravenously (IV; 0.1 mL/mouse) with saline containing chicken ovalbumin and Evan's blue (10 mg/mL of each). Ten minutes later (t=10 min), animals were anesthesized with isoflurane, the dorsal surface was shaved and rabbit anti-chicken ovalbumin antibody was then injected intradermally at one site on the right side of the animal (25 μg in 30 μL). The same amount of isotype control antibody was then injected on the left side.
The animals were then returned to their home cage and skin punches (8 mm) were collected from each injection site four hours later. The samples were placed in 1 mL formamide overnight at 80 degrees C. (1 skin biopsy per 1 mL formamide in a glass tube). The amount of Evan's blue in the formamide solution was then assessed by spectrophotometry (630 nm) as a measure of serum extravasation into the dermis.

B10R111 mice = assay: Mouse CIA model; type: in vivo; details: oral gavage at 30 mg/kg (BID)
Method: Mouse CIA model was performed using the methods described by Trentham D E, Townes A S, Kang A H. Autoimmunity to Type II Collagen: An Experimental Model of Arthritis. J Exp Med 1977; 857-868, and Bendele A M. Animal Models of Rheumatoid Arthritis. J Musculoskel Interact 2001; 377-385.
In summary, male B10R111 mice (7-9 wks on arrival) were habituated to the animal facility for at least 4 days. On experimental day 0 mice were anaesthetized with isoflurane and the dorsal surface was shaved. Collagen, emulsified in Freund's complete adjuvant (CFA) supplemented with additional mycobacterium tuberculosis (TB) H37Ra, was injected intradermally at the base of the tail (0.15 mL/animal; 2 mg/mL collagen and 2.5 mg/mL TB in CFA). This CFA treatment was repeated on day 15.
From day 15 to the end of the study animals were scored daily for signs of arthritis. On the first day of disease (RA Day 1) animals were recruited to the study and grouped using a balanced design based on arthritis score. Once recruited, animals were weighed and dosed twice daily by gavage (PO, BID). Recruited animals were then scored twice a week on RA days 1, 5, 8 and 12. At the end of the study (RA day 12) animals were weighed and scored.

Sequence of recombinant human full-length Bruton Agammaglobulinemia Tyrosine Kinase (Btk) (Q06187 whole entry): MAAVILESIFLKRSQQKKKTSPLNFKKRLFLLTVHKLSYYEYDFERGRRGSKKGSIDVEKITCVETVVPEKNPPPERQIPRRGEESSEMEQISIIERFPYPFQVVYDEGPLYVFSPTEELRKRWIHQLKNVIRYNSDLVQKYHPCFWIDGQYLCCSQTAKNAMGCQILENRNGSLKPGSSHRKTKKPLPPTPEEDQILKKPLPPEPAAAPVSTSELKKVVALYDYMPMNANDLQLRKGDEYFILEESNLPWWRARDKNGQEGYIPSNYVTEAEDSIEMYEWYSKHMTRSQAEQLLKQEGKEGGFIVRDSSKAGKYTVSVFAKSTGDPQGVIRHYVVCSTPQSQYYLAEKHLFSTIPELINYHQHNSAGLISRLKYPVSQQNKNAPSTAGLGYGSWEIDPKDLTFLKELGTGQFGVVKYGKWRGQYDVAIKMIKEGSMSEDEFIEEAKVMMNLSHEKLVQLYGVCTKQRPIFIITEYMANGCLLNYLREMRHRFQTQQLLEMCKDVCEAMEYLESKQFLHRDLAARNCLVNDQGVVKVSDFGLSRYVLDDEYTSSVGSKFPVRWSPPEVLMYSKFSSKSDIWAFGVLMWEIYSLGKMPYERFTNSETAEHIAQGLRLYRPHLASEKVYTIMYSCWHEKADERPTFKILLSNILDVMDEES

| Structure (SMILES) | EC50 ([1]; Mus musculus, Splenocyte, 72 h) [nM] | Ki [2] [nM] | efficacy in mouse Arthus (Evan's blue extravasation) (Balb/c mice) | EC50 [1] [nM] | efficacy in mouse CIA model (arthritis score) (B10R111 mice) |
| --- | --- | --- | --- | --- | --- |
| Cc1ncc(COc2cc(F)cc(Oc3ccc(-c4nn(C5CCOCC5)c5ncnc(N)c45)cc3)c2)n1C [Compound 108] | < 100 | < 100 | demonstrated efficacy |  |  |
| N#Cc1ccccc1COc1cccc(Oc2ccc(-c3nn(C4CCCC4)c4ncnc(N)c34)cc2)c1 [Compound 15] |  | < 100 | demonstrated efficacy | < 100 |  |
| Cc1ncc(COc2cc(F)cc(Oc3ccc(-c4nn(CC5(C)COC5)c5ncnc(N)c45)cc3)c2)s1 [Compound 125] | < 100 | < 100 | demonstrated efficacy |  |  |
| Cc1ncc(COc2cc(F)cc(Oc3ccc(-c4nn(C5CCCC5)c5ncnc(N)c45)cc3)c2)cn1 [Compound 107] | < 100 | < 100 | demonstrated efficacy |  |  |
| Cn1cncc1COc1cc(F)cc(Oc2ccc(-c3nn(C4CCCCC4)c4ncnc(N)c34)cc2)c1 [Compound 103] | < 100 | < 100 | demonstrated efficacy |  |  |
| CC(C)n1nc(-c2ccc(Oc3cc(F)cc(OCc4cncn4C)c3)cc2)c2c(N)ncnc21 [Compound 79] | < 100 | < 100 | demonstrated efficacy |  |  |
| Cc1ccc(COc2cc(F)cc(Oc3ccc(-c4nn(C(C)C)c5ncnc(N)c45)cc3)c2)cn1 [Compound 85] | < 100 | < 100 | demonstrated efficacy |  | demonstrated efficacy |
| Cc1ncc(COc2cc(F)cc(Oc3ccc(-c4nn(C5CCOCC5)c5ncnc(N)c45)cc3)c2)s1 [Compound 54] | < 100 | < 100 | demonstrated efficacy |  |  |
| Nc1ncnc2c1c(-c1ccc(Oc3cccc(OCc4cncs4)c3)cc1)nn2C1CCCC1 [Compound 14] | < 100 | < 100 | demonstrated efficacy |  | demonstrated efficacy |
| Cc1ncc(COc2cc(F)cc(Oc3ccc(-c4nn(CC(C)(C)O)c5ncnc(N)c45)cc3)c2)s1 [Compound 117] | < 100 | < 100 | demonstrated efficacy |  |  |
| Cc1ncc(COc2cc(F)cc(Oc3ccc(-c4nn(C5CCCC5)c5ncnc(N)c45)cc3)c2)s1 [Compound 58] | < 100 | < 100 | demonstrated efficacy |  | demonstrated efficacy |
| Nc1ncnc2c1c(-c1ccc(Oc3cc(F)cc(OCc4cncs4)c3)cc1)nn2C1CCCC1 [Compound 50] | < 100 | < 100 | demonstrated efficacy |  |  |
| Nc1ncnc2c1c(-c1ccc(Oc3cccc(OCc4cncs4)c3)cc1)nn2C1CCOCC1 [Compound 24] | < 100 | < 100 | demonstrated efficacy |  |  |
| Cn1cncc1COc1cc(F)cc(Oc2ccc(-c3nn(C4CCCC4)c4ncnc(N)c34)cc2)c1 [Compound 82] | < 100 | < 100 | demonstrated efficacy |  |  |
| Cc1ncc(COc2cccc(Oc3ccc(-c4nn(C5CCOCC5)c5ncnc(N)c45)cc3F)c2)s1 [Compound 62] | < 100 | < 100 | demonstrated efficacy |  |  |
| Cc1ncc(COc2cc(F)cc(Oc3ccc(-c4nn(C(C)C)c5ncnc(N)c45)cc3)c2)cn1 [Compound 102] | < 100 | < 100 | demonstrated efficacy |  | demonstrated efficacy |
| Cc1ncc(COc2cc(F)cc(Oc3ccc(-c4nn(C5CCOCC5)c5ncnc(N)c45)cc3)c2)cn1 [Compound 106] | < 100 | < 100 | demonstrated efficacy |  |  |
| Cc1ncc(COc2cc(F)cc(Oc3ccc(-c4nn(C(C)C)c5ncnc(N)c45)cc3)c2)s1 [Compound 78] | < 100 | < 100 | demonstrated efficacy |  | demonstrated efficacy |
| Cn1cncc1COc1cc(F)cc(Oc2ccc(-c3nn(C4CCOCC4)c4ncnc(N)c34)cc2)c1 [Compound 71] | < 100 | < 100 | demonstrated efficacy |  |  |
| Nc1ncnc2c1c(-c1ccc(Oc3cc(F)cc(OCc4cncs4)c3)cc1)nn2C1CCOCC1 [Compound 46] | < 100 | < 100 | demonstrated efficacy |  |  |
| Cc1ncc(COc2cc(F)cc(Oc3ccc(-c4nn(C(CO)CO)c5ncnc(N)c45)cc3)c2)s1 [Compound 100] | < 100 | < 100 | demonstrated efficacy |  |  |
| Cn1cncc1COc1cc(F)cc(Oc2ccc(-c3nn(CCO)c4ncnc(N)c34)cc2)c1 [Compound 90] | 100 to 1000 | < 100 | demonstrated efficacy |  |  |
| Cc1ncc(COc2cc(F)cc(Oc3ccc(-c4nn(C5CCOCC5)c5ncnc(N)c45)cc3F)c2)s1 [Compound 59] | < 100 | < 100 | demonstrated efficacy |  |  |
| Cn1nc(-c2ccc(Oc3cccc(OCc4ccccc4C(F)(F)F)c3)cc2)c2c(N)ncnc21 [Compound 20] | < 100 | < 100 |  |  |  |
| CC(=O)N1CCC[C@@H](n2nc(-c3ccc(Oc4cccc(OCc5ccccc5C#N)c4)cc3)c3c(N)ncnc32)C1 [Compound 28] | < 100 | < 100 |  |  |  |
| Nc1ncnc2c1c(-c1ccc(Oc3cccc(OCc4ccccc4C(F)(F)F)c3)cc1)nn2C1CCOCC1 [Compound 23] | < 100 | < 100 |  |  |  |
